From patent US20080090903A1, “PHENYLALKYL CARBAMATE COMPOSITIONS” (priority 2006, published 2008)

Test: Forced degradation of the phenylalkyl carbamate as a function of pH (pH 9 carbonate buffer, LC-MS)
Format: physicochemical
Settings: room temperature
Procedure: Under certain conditions of elevated temperature and relative humidity, such as, 25° C. and 40% RH, 25° C. and 60% RH, 25° C. and 80% RH, 45° C. and 20% RH, 45° C. and 40% RH, 45° C. and 60% RH, 45° C. and 80% RH, or 40° C. and75% RH and the like, an exposed compound or composition may be subject to degradation.
As shown in Scheme A, a sample of Compound A1, the carbamic acid (2R)-2-(2-chloro-phenyl)-2-hydroxy-ethyl ester compound of formula (Ib), was dissolved in a pH 9 carbonate buffer.
The sample was analyzed by LC-MS under reverse phase conditions using positive ion ESI and APCI detection.

Compound: NC(=O)OC[C@H](O)c1ccccc1Cl [Compound A1, carbamic acid (2R)-2-(2-chloro-phenyl)-2-hydroxy-ethyl ester]
- Degradation in solution: degradation products had formed in appreciable amounts
